Laboratory results from patent US10081632B2, “Substituted tetrahydropyrido[3′,2′:4,5]pyrrolo[1,2-α]pyrazine-2-carboxamides as RSK inhibitors” (Phoenix Molecular Designs, priority 2016, dated 2018).
“Also recorded” adds a separate entry of the source. One block for each molecule: values may come before it.

What was measured:
RSK2 = RSK2 (Homo sapiens (Human), UniProt P51812); test: Radioisotope kinase assay (SignalChem), RSK2; assay type: biochemical; conditions: 33P-ATP, 30° C., 15 minutes
Procedure: The assay conditions for the RSK2 kinase target were optimized to yield acceptable enzymatic activity. In addition, the assays were optimized to give high signal-to-noise ratio.
Radioisotope assays (SignalChem) were performed for the evaluation of the kinase target profiling and all assays were performed in a designated radioactive working area. The kinase targets were RSK1, RSK2, RSK3, RSK4 and MK2.
The assay was initiated by the addition of ^33P-ATP and the reaction mixture incubated at 30° C. for 15 minutes. After the incubation period, the assay was terminated by spotting 10 μL of the reaction mixture onto Multiscreen phosphocellulose P81 plate. The Multiscreen phosphocellulose P81 plate was washed 3 times for approximately 15 minutes each in a 1% phosphoric acid solution. The radioactivity on the P81 plate was counted in the presence of scintillation fluid in a Trilux scintillation counter.
Blank controls were set up for each target kinase which included all the assay components except the addition of the appropriate substrate (which was replaced with equal volume of assay dilution buffer). The corrected activity for each target kinase was determined by removing the blank control value.

[1] = Solubility assessment, 20 mg/ml solution; assay type: physicochemical; conditions: for Solubility, 20 mg/ml Solution: 100 mM in DMSO diluted in DMEM growth media to 20 mg/ml
Procedure: Solubility is an important property for therapeutic drug candidates. Poor solubility can lead to low bioavailability resulting in suboptimal drug delivery. It can also prevent the evaluation of test agents in animals because the concentration(s) needed to achieve the desired effect cannot be achieved to poor solubility. For solubility assessments, small molecules targeting RSK were compared. For these assessments, 100 mM solutions of the compounds dissolved in DMSO were diluted in DMEM growth media (Life Technologies) supplemented with fetal bovine serum (FBS, Life Technologies) and 100 units/ml penicillin and 100 units/ml streptomycin (Life Technologies) to make 20 mg/ml solutions. Once diluted, the solutions were vortexed and examined for the formation of precipitates. […] For Compound 26, a 100 mM solution of the compound dissolved in DMSO was diluted in phosphate buffered saline (Life Technologies) to make a 20 mg/ml solution. The stock of […] was chosen because this is the upper end of what would be required to dose mice for a range of studies including MTD, PK, PD and efficacy. The pH of this solution was determined to be 2, as previously described. […] At high concentrations some RSK inhibitors were highly soluble while others were not. Compound 0 is (R)—N-(1-benzyl-1H-pyrazol-4-yl)-9-methyl-6-oxo-6,7,8,9-tetrahydropyrido[3′,2′:4,5]pyrrolo[1,2-a]pyrazine-2-carboxamide. Compound 0 was not soluble, whereas Compounds 18, 20, 21, 25 and 26 were soluble under the same conditions (Table 5).

MDA-MB-231 cells [2] = test: Soft agar growth inhibition assay; assay type: cell-based; conditions: Homo sapiens, MDA-MB-231; growth in soft agar (SA); read-out: MDA-MB-231 IC50 (SA)
CD34+ cells = test: Colony forming unit hematopoietic stem cell assay; assay type: cell-based, human
Procedure: The hematopoietic colony forming cell assay was conducted based on a protocol outlined by StemCell Technologies. […] Following the addition of CD34^+ cells isolated from human cord blood or peripheral blood (StemCell Technologies) at a final concentration of 5×10^2 cells per dish, the tubes were vortexed and allowed to stand for 5 minutes at room temperature. Next, the MethoCult mixtures were dispensed into 35 mm dishes (Corning Incorporated) through blunt end needles (StemCell Technologies) and 5 ml syringes (BD Biosciences) at a volume of 1.1 ml per dish. The medium was evenly distributed across the surface of each dish by gentle tilting and rotation. The dishes were then placed in a 100 mm culture dish (Grenier Bio-One) containing additional 35 mm dishes with sterile water to maintain humidity. […] The number of myeloid and erythroid derived colonies in both the treated and control dishes were counted and compared.

4T1 cells [3] = test: Monolayer growth inhibition, Alamar blue assay; assay type: cell-based; conditions: Mus musculus; 4T1 (TNBC), 5 days, single dose on day 1
Text: (§1) In all instances a single dose was given on day 1 of the experiment.

HCC1143 cells [4] = test: Monolayer growth inhibition, Alamar blue assay; assay type: cell-based; conditions: Homo sapiens; HCC1143 (TNBC), 5 days, single dose on day 1
Text: as §1

HCC1937 cells [5] = test: Monolayer growth inhibition, Alamar blue assay; assay type: cell-based; conditions: Homo sapiens; HCC1937 (TNBC, BRCA Mutant), 5 days, single dose on day 1
Text: as §1

JIMT-1 cells [6] = test: Monolayer growth inhibition, Alamar blue assay; assay type: cell-based; conditions: Homo sapiens; JIMT-1 (HER2), 5 days, single dose on day 1
Text: as §1

MDA-MB-231 cells [7] = test: Monolayer growth inhibition, Alamar blue assay; assay type: cell-based; conditions: Homo sapiens; MDA-MB-231 (TNBC), 5 days, single dose on day 1
Text: as §1

MDA-MB-435 cells [8] = test: Monolayer growth inhibition, Alamar blue assay; assay type: cell-based; conditions: Homo sapiens; MDA-MB-435 (Melanoma), 5 days, single dose on day 1
Text: as §1

MDA-MB-468 cells [9] = test: Monolayer growth inhibition, Alamar blue assay; assay type: cell-based; conditions: Homo sapiens; MDA-MB-468 (TNBC), 5 days, single dose on day 1
Text: as §1

PC3 cells [10] = test: Monolayer growth inhibition, Alamar blue assay; assay type: cell-based; conditions: Homo sapiens, PC-3; PC3 (Prostate), 5 days, single dose on day 1
Text: as §1

SUM149 cells [11] = test: Monolayer growth inhibition, Alamar blue assay; assay type: cell-based; conditions: Homo sapiens; SUM149 (TNBC, BRCA Mutant), 5 days, single dose on day 1
Text: as §1

SUM149-PTXR cells [12] = test: Monolayer growth inhibition, Alamar blue assay; assay type: cell-based, Human; conditions: Homo sapiens; SUM149-PTXR (TNBC, BRCA Mutant), 5 days, single dose on day 1
Text: as §1

T47D cells [13] = test: Monolayer growth inhibition, Alamar blue assay; assay type: cell-based, Human; conditions: Homo sapiens; T47D (ER/PR), 5 days, single dose on day 1
Text: as §1

HCC1937 cells [14] = test: Monolayer growth inhibition, crystal violet assay; assay type: cell-based; conditions: Homo sapiens; HCC1937 (TNBC, BRCA Mutant), 5 days, single dose on day 1
Text: (§2) In all instances a single dose was given on day 1 of the experiment. […] Complete (100%) growth suppression was achievable with several of the compounds in multiple different cell lines.

JIMT-1 cells [15] = test: Monolayer growth inhibition, crystal violet assay; assay type: cell-based; conditions: Homo sapiens; JIMT-1 (HER2), 5 days, single dose on day 1
Text: as §2

MDA-MB-468 cells [16] = test: Monolayer growth inhibition, crystal violet assay; assay type: cell-based; conditions: Homo sapiens; MDA-MB-468 (TNBC), 5 days, single dose on day 1
Text: as §2

T47D cells [17] = test: Monolayer growth inhibition, crystal violet assay; assay type: cell-based; conditions: Homo sapiens; T47D (ER/PR), 5 days, single dose on day 1
Text: as §2

4T1 cells [18] = test: Monolayer growth inhibition, crystal violet assay; assay type: cell-based; conditions: Mus musculus; 4T1 (TNBC), 5 days, single dose on day 1
Text: as §1

HCC1143 cells [19] = test: Monolayer growth inhibition, crystal violet assay; assay type: cell-based; conditions: Homo sapiens; HCC1143 (TNBC), 5 days, single dose on day 1
Text: as §1

MDA-MB-231 cells [20] = test: Monolayer growth inhibition, crystal violet assay; assay type: cell-based; conditions: Homo sapiens; MDA-MB-231 (TNBC), 5 days, single dose on day 1
Text: as §1

MDA-MB-435 cells [21] = test: Monolayer growth inhibition, crystal violet assay; assay type: cell-based; conditions: Homo sapiens; MDA-MB-435 (Melanoma), 5 days, single dose on day 1
Text: as §1

PC3 cells [22] = test: Monolayer growth inhibition, crystal violet assay; assay type: cell-based; conditions: Homo sapiens, PC-3; PC3 (Prostate), 5 days, single dose on day 1
Text: as §1

SUM149 cells [23] = test: Monolayer growth inhibition, crystal violet assay; assay type: cell-based; conditions: Homo sapiens; SUM149 (TNBC, BRCA Mutant), 5 days, single dose on day 1
Text: as §1

SUM149-PTXR cells [24] = test: Monolayer growth inhibition, crystal violet assay; assay type: cell-based; conditions: Homo sapiens; SUM149-PTXR (TNBC, BRCA Mutant), 5 days, single dose on day 1
Text: as §1

RSK2, sequence (P51812 whole entry): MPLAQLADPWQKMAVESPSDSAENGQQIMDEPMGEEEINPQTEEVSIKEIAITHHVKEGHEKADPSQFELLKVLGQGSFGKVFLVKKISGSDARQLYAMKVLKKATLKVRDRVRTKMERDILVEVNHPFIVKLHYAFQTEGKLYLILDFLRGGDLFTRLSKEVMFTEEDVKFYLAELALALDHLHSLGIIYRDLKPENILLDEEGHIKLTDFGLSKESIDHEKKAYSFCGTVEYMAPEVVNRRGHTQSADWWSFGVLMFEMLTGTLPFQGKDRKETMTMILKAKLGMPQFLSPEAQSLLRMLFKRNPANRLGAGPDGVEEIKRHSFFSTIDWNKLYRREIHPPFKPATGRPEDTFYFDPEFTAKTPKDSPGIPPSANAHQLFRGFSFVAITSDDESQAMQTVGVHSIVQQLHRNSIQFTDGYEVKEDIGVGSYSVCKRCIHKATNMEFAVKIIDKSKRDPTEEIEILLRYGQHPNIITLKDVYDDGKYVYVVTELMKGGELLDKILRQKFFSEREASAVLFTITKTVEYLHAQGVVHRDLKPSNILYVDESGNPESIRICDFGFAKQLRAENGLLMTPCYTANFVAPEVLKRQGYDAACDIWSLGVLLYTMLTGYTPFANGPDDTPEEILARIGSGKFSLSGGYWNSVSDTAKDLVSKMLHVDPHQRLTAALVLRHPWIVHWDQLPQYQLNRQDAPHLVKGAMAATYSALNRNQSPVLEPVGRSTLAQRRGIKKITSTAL

Compound: CN1CCN(Cc2c[nH]c3ccc(NC(=O)c4cnn(Cc5ccccc5)c4)cc23)CC1 [Compound 3, 1-Benzyl-N-(3-((4-methylpiperazin-1-yl)methyl)-1H-indol-5-yl)-1H-pyrazole-4-carboxamide]
IC50 (RSK2): > 10 µM

Compound: O=C(Nc1ccc2c(CN3CCOCC3)c[nH]c2c1)c1cnn(Cc2ccccc2)c1 [Compound 2, 1-Benzyl-N-(3-(morpholinomethyl)-1H-indol-6-yl)-1H-pyrazole-4-carboxamide]
IC50 (RSK2): > 10 µM

Compound: C[C@@H]1CNC(=O)c2cc3ccc(C(=O)Nc4cnn(Cc5ccccc5)c4)nc3n21 [Compound 0, (R)—N-(1-benzyl-1H-pyrazol-4-yl)-9-methyl-6-oxo-6,7,8,9-tetrahydropyrido[3′,2′:4,5]pyrrolo[1,2-a]pyrazine-2-carboxamide, reference compound]
Solubility, 20 mg/ml Solution [1]: not soluble; also recorded: poor or nonexistent solubility; also recorded: Precipitate | IC50 (MDA-MB-231 cells [2]): 0.2 µM | IC50 (CD34+ cells; Homo sapiens, Hematopoietic stem cell, CD34+ cells from peripheral blood, read-out: CD34+ (PB) IC50): 10 µM | Therapeutic Window (CD34+ cells; ratio IC50 against CD34+ cells and MDA-MB-231 cells (SA)): 50X

Compound: CN1CCc2[nH]c3ccc(NC(=O)c4cnn(Cc5ccccc5)c4)cc3c2C1 [Compound 14, 1-benzyl-N-(2-methyl-2,3,4,5-tetrahydro-1H-pyrido[4,3-b]indol-8-yl)-1H-pyrazole-4-carboxamide]
IC50 (RSK2): > 1 µM

Compound: O=C(Nc1ccc2cc3n(c2c1)CCNC3=O)c1cnn(Cc2ccccc2)c1 [Compound 12, 1-benzyl-N-(1-oxo-1,2,3,4-tetrahydropyrazino[1,2-a]indol-7-yl)-1H-pyrazole-4-carboxamide]
IC50 (RSK2): > 1 µM

Compound: O=C(Nc1ccc2[nH]cc(CN3CCOCC3)c2c1)c1cnn(Cc2ccccc2)c1 [Compound 1, 1-Benzyl-N-(3-(morpholinomethyl)-1H-indol-5-yl)-1H-pyrazole-4-carboxamide]
IC50 (RSK2): > 10 µM

Compound: CN1CCc2oc3ccc(NC(=O)c4cnn(Cc5ccccc5)c4)cc3c2C1 [Compound 13, 1-benzyl-N-(2-methyl-1,2,3,4-tetrahydrobenzofuro[3,2-c]pyridin-8-yl)-1H-pyrazole-4-carboxamide]
IC50 (RSK2): > 1 µM

Second part, led by results:

IC50 (RSK2): > 10 µM
Compound: O=C(Nc1ccc2c(CN3CCOCC3)coc2c1)c1cnn(Cc2ccccc2)c1 [Compound 7, 1-benzyl-N-(3-(morpholinomethyl)benzofuran-6-yl)-1H-pyrazole-4-carboxamide]

IC50 (RSK2): > 10 µM
Compound: CN1CCN(Cc2c[nH]c3cc(NC(=O)c4cnn(Cc5ccccc5)c4)ccc23)CC1 [Compound 4, 1-Benzyl-N-(3-((4-methylpiperazin-1-yl)methyl)-1H-indol-6-yl)-1H-pyrazole-4-carboxamide]

Solubility, 20 mg/ml Solution [1]: Soluble | pH of 20 mg/ml solution ([1]; DMSO stock diluted in DMEM, pH test strips): 8
Compound: C[C@@H]1CNC(=O)c2cc3ccc(C(=O)Nc4cnn(CC5CCN(C)CC5)c4)nc3n21 [Compound 20, (R)-9-methyl-N-(1-((1-methylpiperidin-4-yl)methyl)-1H-pyrazol-4-yl)-6-oxo-6,7,8,9-tetrahydropyrido[3′,2′:4,5]pyrrolo[1,2-a]pyrazine-2-carboxamide]

IC50 (RSK2): > 10 µM
Compound: O=C(Nc1ccc2scc(CN3CCOCC3)c2c1)c1cnn(Cc2ccccc2)c1 [Compound 5, 1-Benzyl-N-(3-(morpholinomethyl)benzo[b]thiophen-5-yl)-1H-pyrazole-4-carboxamide]

IC50 (RSK2): > 10 µM
Compound: O=C(Nc1ccc2scc(CN3CCNCC3)c2c1)c1cnn(Cc2ccccc2)c1 [Compound 6, 1-Benzyl-N-(3-(piperazin-1-ylmethyl)benzo[b]thiophen-5-yl)-1H-pyrazole-4-carboxamide]

IC50 (RSK2): > 10 µM
Compound: O=C(Nc1ccc2occ(CN3CCNCC3)c2c1)c1cnn(Cc2ccccc2)c1 [Compound 9, 1-benzyl-N-(3-(piperazin-1-ylmethyl)benzofuran-5-yl)-1H-pyrazole-4-carboxamide]

IC50 (4T1 cells [3]): 48.5 ± 2.6 µM | IC50 (HCC1143 cells [4]): > 50 µM | IC50 (HCC1937 cells [5]): > 50 µM | IC50 (MDA-MB-231 cells [7]): > 50 µM | IC50 (MDA-MB-435 cells [8]): 24.6 ± 10.3 µM | IC50 (MDA-MB-468 cells [9]): > 50 µM | IC50 (PC3 cells [10]): 44.9 ± 8.8 µM | IC50 (T47D cells [13]): 48.1 ± 3.3 µM | IC50 (HCC1937 cells [14]): > 50 µM | IC50 (MDA-MB-468 cells [16]): 37.3 ± 2.3 µM | IC50 (T47D cells [17]): 30.1 ± 3.3 µM | IC50 (4T1 cells [18]): 39.5 ± 9.4 µM | IC50 (HCC1143 cells [19]): > 50 µM | IC50 (MDA-MB-231 cells [20]): 45 ± 8.7 µM | IC50 (MDA-MB-435 cells [21]): 17.9 ± 7.3 µM | IC50 (PC3 cells [22]): 45.6 ± 4.8 µM
Compound: C[C@@H]1CNC(=O)c2cc3ccc(NC(=O)c4cnn(Cc5ccccc5)c4)cc3n21 [Compound 11, (R)-1-benzyl-N-(4-methyl-1-oxo-1,2,3,4-tetrahydropyrazino[1,2-a]indol-7-yl)-1H-pyrazole-4-carboxamide]
IC50 (JIMT-1 cells [6]): > 50 µM | IC50 (SUM149 cells [11]): 36 ± 12.8 µM | IC50 (SUM149-PTXR cells [12]): 36.4 ± 11.9 µM | IC50 (JIMT-1 cells [15]): > 50 µM | IC50 (SUM149 cells [23]): 33.6 ± 14.5 µM | IC50 (SUM149-PTXR cells [24]): 44.6 ± 3.9 µM

IC50 (RSK2): > 10 µM
Compound: O=C(Nc1ccc2occ(CN3CCOCC3)c2c1)c1cnn(Cc2ccccc2)c1 [Compound 8, 1-benzyl-N-(3-(morpholinomethyl)benzofuran-5-yl)-1H-pyrazole-4-carboxamide]

IC50 (RSK2): > 1 µM
Compound: O=C(Nc1ccc2c(CN3CCNCC3)coc2c1)c1cnn(Cc2ccccc2)c1 [Compound 10, 1-benzyl-N-(3-(piperazin-1-ylmethyl)benzofuran-6-yl)-1H-pyrazole-4-carboxamide]
